The assay has as its system RPMI2650 head and neck cancer cells. Kind of assay: CTG cell proliferation IC50, RPMI 2650. The following applies: 72 hours, read-out: Absolute IC50. In kind it is cell-based. The source says:
• 2). IC50 value: the concentration of inhibitor when 50% inhibitory effect was achieved; • 3). CAL-27 and RPMI 2650: head and neck cancer cell models; HepG2: hepatocellular cancer cells. CAL-27, RPMI 2650 and HepG2 cells were purchased from ATCC, where ATCC® No. was CRL-2095™, CCL-30™, HB-8065™, respectively. • 4). Both KYSE-150 and TE-1 were esophageal cancer cell models. The KYSE-150 cell line was purchased from DSMZ (German Collection of Microorganisms and Cell Cultures), and the DSMZ No. was ACC375; the TE-1 cell line was purchased from National Collection of Authenticated Cell Cultures, catalog number: TCHu89. • 5). RPMI 1640/F12 medium was a 1:1 mixture of RPMI 1640 medium and F12 medium. • 6). The percentages in 10% FBS in Table 1 and Table 2 were volume percentages. (2) Reagents • 1). FBS (fetal bovine serum) (purchased from ExCell, product number: FND500); • 2). MEM medium (purchased from Hyclone, product number: SH30024.01; • 3). DMEM medium (purchased from Gibco, product number: C11995500BT); • 4). MEM NEAA (purchased from Gibco, product number: 11140-050); • 5). RPMI1640 Culture medium (purchased from Gibco, product number: 11875-119); • 6). F12 Culture medium (purchased from Gibco, product number: 11765-054); (3) Test Article and Positive Control Article
2. CTG Method was Used to Determine the Cell Proliferation IC50 of the Compound
• Step 1: Cells in exponential growth phase were harvested, and viable cells were counted with a Vi-Cell XR cytometer. The cell suspension was adjusted to an appropriate concentration with medium. […] After 10 minutes, the fluorescence signal value was measured with an Envision2104 plate reader. […]
Cell survival rate was calculated using the formula: Vsample/Vvehicle control×100%. Where, Vsample was the reading of the drug treatment group, and Vvehicle control was the average value of the solvent control group. GraphPad Prism 5.0 software was used, and a S-type dosage-survival rate curve was drawn using a nonlinear regression model and IC50 value was calculated.

pIC50: −log10 of the molar value. Read-outs that look alike come from different tables or passages of the source.

Consider `COCCOc1cnc2ccc(-c3cnc(OC)c(NS(=O)(=O)c4sc(C)nc4C)c3)cn2c1=O` [Compound I], for which the negative-log IC50 (pIC50) – broadly, −log10 of the IC50, conventionally taken in molar units – was 7.14. In addition, the pIC50 (listed as compound I) was over 6.00.

The record behind these values is patent publication US12661357B2, “Use of pyrido[1,2-a]pyrimidone analogue” (GUANGZHOU JOYO PHARMATECH CO., LTD, priority 2021, dated 2026).
